These results are taken from patent US10711004B2 (Genentech, Inc., priority 2018, dated 2020).

The target in this assay is human TRPA1 channel (Homo sapiens (Human), UniProt O75762). Kind of assay: hTRPA1 CHO Ca2+ FLIPR Tetra assay, block of cinnamaldehyde induced calcium influx. It counts as cell-based. The following applies: CHO cells expressing TRPA1, Hill coefficient fixed to 1.5. Summed up: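 IC50 values come from fixed-Hill fits of inhibition of cinnamaldehyde-induced (about EC50 level) calcium influx measured by FLIPR Tetra. Before agonist, TRPA1-expressing CHO cells loaded with calcium indicator were exposed to compound for 10 or 90 min at room temperature in HEPES-buffered HBSS, pH 7.4, with 0.02% BSA.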

The mark [1] stands for this setting: read-out: hTRPA1 IC50 (10 min), compounds incubated 10 minutes at room temperature before cinnamaldehyde agonist.
Where [2] appears, read: read-out: hTRPA1 IC50 (90 min), compounds incubated 90 minutes at room temperature before cinnamaldehyde agonist.

Broadly, the IC50 is the concentration at which inhibition is half-maximal.

Read-outs that look alike come from different tables or passages of the source.

Chain of human TRPA1 channel (O75762 whole entry): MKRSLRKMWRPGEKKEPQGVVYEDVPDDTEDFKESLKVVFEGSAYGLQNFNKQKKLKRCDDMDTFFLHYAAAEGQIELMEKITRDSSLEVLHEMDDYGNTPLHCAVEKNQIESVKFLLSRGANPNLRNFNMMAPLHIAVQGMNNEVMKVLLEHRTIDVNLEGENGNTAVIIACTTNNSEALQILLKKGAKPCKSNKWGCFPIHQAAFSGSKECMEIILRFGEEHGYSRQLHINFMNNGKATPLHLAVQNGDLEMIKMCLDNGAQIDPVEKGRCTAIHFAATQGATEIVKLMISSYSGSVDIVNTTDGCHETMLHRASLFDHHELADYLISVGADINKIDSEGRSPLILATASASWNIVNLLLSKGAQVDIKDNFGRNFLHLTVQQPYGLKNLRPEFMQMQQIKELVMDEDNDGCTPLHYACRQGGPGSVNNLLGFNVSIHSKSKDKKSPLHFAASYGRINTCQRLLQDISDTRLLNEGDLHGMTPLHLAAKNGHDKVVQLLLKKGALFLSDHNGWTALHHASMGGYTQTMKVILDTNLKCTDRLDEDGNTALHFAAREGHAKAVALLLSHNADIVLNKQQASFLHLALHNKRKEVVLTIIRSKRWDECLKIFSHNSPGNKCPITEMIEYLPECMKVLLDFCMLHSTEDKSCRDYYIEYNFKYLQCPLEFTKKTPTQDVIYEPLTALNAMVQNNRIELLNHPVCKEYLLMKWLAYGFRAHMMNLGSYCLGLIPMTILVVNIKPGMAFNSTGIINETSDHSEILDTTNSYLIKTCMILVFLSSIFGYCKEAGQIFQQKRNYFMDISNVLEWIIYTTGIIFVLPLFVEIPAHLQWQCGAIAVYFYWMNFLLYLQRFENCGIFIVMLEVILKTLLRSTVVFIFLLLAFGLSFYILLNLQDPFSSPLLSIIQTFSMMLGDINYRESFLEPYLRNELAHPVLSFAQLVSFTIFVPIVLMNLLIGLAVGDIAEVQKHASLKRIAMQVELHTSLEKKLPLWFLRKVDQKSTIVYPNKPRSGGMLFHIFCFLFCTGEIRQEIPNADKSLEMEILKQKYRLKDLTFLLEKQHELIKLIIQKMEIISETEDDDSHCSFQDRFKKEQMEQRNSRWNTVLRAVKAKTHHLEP

In the case of `Cn1cnc2ncn(Cc3nc([C@H]4[C@@H]5CN(c6cccc(-c7ccccc7)c6)C[C@@H]54)no3)c(=O)c21` [Example Compound 234, 1-((3-((1R,5S,6r)-3-([1,1′-biphenyl]-3-yl)-3-azabicyclo[3.1.0]hexan-6-yl)-1,2,4-oxadiazol-5-yl)methyl)-7-methyl-1,7-dihydro-6H-purin-6-one], the IC50 under setting [1] amounted to 340 nM.
As to `Cn1cnc2ncn(Cc3nc([C@H]4[C@@H]5CN(c6cccc(C#N)c6)C[C@@H]54)no3)c(=O)c21` [Example Compound 235, 3-((1R,5S,6r)-6-(5-((7-methyl-6-oxo-6,7-dihydro-1H-purin-1-yl)methyl)-1,2,4-oxadiazol-3-yl)-3-azabicyclo[3.1.0]hexan-3-yl)benzonitrile], the IC50 is 73.5 nM under setting [1] and 17 nM under setting [2].
As for `Cn1cnc2ncn(Cc3nc([C@H]4[C@@H]5CN(c6cccc(Cl)c6F)C[C@@H]54)no3)c(=O)c21` [Example Compound 236, 1-((3-((1R,5S,6r)-3-(3-chloro-2-fluorophenyl)-3-azabicyclo[3.1.0]hexan-6-yl)-1,2,4-oxadiazol-5-yl)methyl)-7-methyl-1,7-dihydro-6H-purin-6-one], the IC50 under setting [1] worked out at 21.3 nM and the IC50 under setting [2] is 4.4 nM.
Take `Cn1cnc2ncn(Cc3nc([C@H]4[C@@H]5CN(c6ccc7sncc7c6)C[C@@H]54)no3)c(=O)c21` [Example Compound 237, 1-((3-((1R,5S,6r)-3-(benzo[d]isothiazol-5-yl)-3-azabicyclo[3.1.0]hexan-6-yl)-1,2,4-oxadiazol-5-yl)methyl)-7-methyl-1,7-dihydro-6H-purin-6-one]: the IC50 reads like this: under setting [1], 18.2 nM; under setting [2], 2.1 nM.
In the case of `Cc1cc(N)nc2ncn(Cc3nc([C@H]4[C@@H]5C=C(c6ccccc6)C[C@@H]54)no3)c(=O)c12` [Example Compound 238, 7-amino-5-methyl-3-[[3-[(1S,5S,6R)-3-phenyl-6-bicyclo[3.1.0]hex-2-enyl]-1,2,4-oxadiazol-5-yl]methyl]pyrido[2,3-d]pyrimidin-4-one], the IC50 under setting [1] was found to be 11.3 nM and the IC50 under setting [2] is 1.5 nM.
On to `Nc1ccc2c(=O)n(Cc3nc([C@H]4[C@@H]5C=C(c6ccccc6)C[C@@H]54)no3)cnc2n1` [Example Compound 239, 7-amino-3-[[3-[(1S,5S,6R)-3-phenyl-6-bicyclo[3.1.0]hex-2-enyl]-1,2,4-oxadiazol-5-yl]methyl]pyrido[2,3-d]pyrimidin-4-one], for which the IC50 runs as follows: under setting [1], 10.5 nM; under setting [2], 5.3 nM.
For the compound `Cn1cnc2ncn(Cc3nc([C@@H]4[C@H]5CC[C@H](Oc6ccccc6)[C@H]54)no3)c(=O)c21` [Example Compound 240, 7-methyl-1-[[3-[(1R,2S,5R,6R)-2-phenoxy-6-bicyclo[3.1.0]hexanyl]-1,2,4-oxadiazol-5-yl]methyl]purin-6-one], the IC50 runs as follows: under setting [1], 254 nM; under setting [2], 80 nM.
Turning to `CC(=O)Nc1nc2ncn(Cc3nc([C@H]4[C@@H]5C=C(c6ccccc6)C[C@@H]54)no3)c(=O)c2n1C` [Example Compound 241, N-[7-methyl-6-oxo-1-[[3-[(1S,5S,6R)-3-phenyl-6-bicyclo[3.1.0]hex-2-enyl]-1,2,4-oxadiazol-5-yl]methyl]purin-8-yl]acetamide], the IC50 reads like this: under setting [1], 66.9 nM; under setting [2], 18 nM.
For `Cn1cnc2ncn(Cc3nc([C@@H]4[C@H]5C=C(c6ccc(F)c(F)c6F)C[C@H]54)no3)c(=O)c21` [Example Compound 242, 7-methyl-1-[[3-[(1R,5R,6S)-3-(2,3,4-trifluorophenyl)-6-bicyclo[3.1.0]hex-2-enyl]-1,2,4-oxadiazol-5-yl]methyl]purin-6-one], the IC50 reads like this: under setting [1], 19.1 nM; under setting [2], 6.3 nM.
Take `Cn1c(NC2COC2)nc2ncn(Cc3nc([C@H]4[C@@H]5C=C(c6ccccc6)C[C@@H]54)no3)c(=O)c21` [Example Compound 243, 7-methyl-8-(oxetan-3-ylamino)-1-[[3-[(1S,5S,6R)-3-phenyl-6-bicyclo[3.1.0]hex-2-enyl]-1,2,4-oxadiazol-5-yl]methyl]purin-6-one]: the IC50 runs as follows: under setting [1], 101 nM; under setting [2], 45 nM.
Consider `CN(C)C(=O)CNc1nc2ncn(Cc3nc([C@H]4[C@@H]5C=C(c6ccccc6)C[C@@H]54)no3)c(=O)c2n1C` [Example Compound 244, N,N-dimethyl-2-[[7-methyl-6-oxo-1-[[3-[(1S,5S,6R)-3-phenyl-6-bicyclo[3.1.0]hex-2-enyl]-1,2,4-oxadiazol-5-yl]methyl]purin-8-yl]amino]acetamide], for which the IC50 by setting is: under setting [1], 68.7 nM; under setting [2], 26 nM.
On to `Cn1c(NC2CCOCC2)nc2ncn(Cc3nc([C@H]4[C@@H]5C=C(c6ccccc6)C[C@@H]54)no3)c(=O)c21` [Example Compound 245, 7-methyl-1-[[3-[(1S,5S,6R)-3-phenyl-6-bicyclo[3.1.0]hex-2-enyl]-1,2,4-oxadiazol-5-yl]methyl]-8-(tetrahydropyran-4-ylamino)purin-6-one], for which the IC50 is 79.9 nM under setting [1] and 43 nM under setting [2].
With `CCNc1nc2ncn(Cc3nc([C@H]4[C@@H]5C=C(c6ccccc6)C[C@@H]54)no3)c(=O)c2n1C` [Example Compound 246, 8-(ethylamino)-7-methyl-1-[[3-[(1S,5S,6R)-3-phenyl-6-bicyclo[3.1.0]hex-2-enyl]-1,2,4-oxadiazol-5-yl]methyl]purin-6-one], the IC50 runs as follows: under setting [1], 53.9 nM; under setting [2], 29 nM.
For `Cn1cnc2ncn(Cc3nc([C@H]4[C@@H]5CN(c6ccc(C#N)cc6F)C[C@@H]54)no3)c(=O)c21` [Example Compound 247, 3-fluoro-4-[(1S,5R)-6-[5-[(7-methyl-6-oxo-purin-1-yl)methyl]-1,2,4-oxadiazol-3-yl]-3-azabicyclo[3.1.0]hexan-3-yl]benzonitrile], the IC50 came to 57.9 nM under setting [1] and 23 nM under setting [2].
As to `Cn1cnc2ncn(Cc3nc([C@@H]4[C@H]5C=C(c6ccccc6)[C@@H](O)[C@H]54)no3)c(=O)c21` [Example Compound 250, 7-methyl-1-[[3-[(1R,4S,5R,6R)-4-hydroxy-3-phenyl-6-bicyclo[3.1.0]hex-2-enyl]-1,2,4-oxadiazol-5-yl]methyl]purin-6-one], the IC50 runs as follows: under setting [1], 312 nM; under setting [2], 40 nM.
For the compound `Cn1cnc2ncn(Cc3nc([C@H]4[C@@H]5C=C(c6cc(F)c(F)c(F)c6)C[C@@H]54)no3)c(=O)c21` [Example Compound 251, 7-methyl-1-[[3-[(1S,5S,6R)-3-(3,4,5-trifluorophendyl)-6-bicyclo[3.1.0]hex-2-enyl]-1,2,4-oxadiazol-5-yl]methyl]purin-6-one], the 50% inhibitory concentration (IC50) is 14.9 nM under setting [1] and 2 nM under setting [2].
Take `Cn1c(NCCO)nc2ncn(Cc3nc([C@H]4[C@@H]5C=C(c6ccccc6)C[C@@H]54)no3)c(=O)c21` [Example Compound 252, 8-(2-hydroxyethylamino)-7-methyl-1-[[3-[(1S,5S,6R)-3-phenyl-6-bicyclo[3.1.0]hex-2-enyl]-1,2,4-oxadiazol-5-yl]methyl]purin-6-one]: the IC50 stood at 304 nM under setting [1] and 68 nM under setting [2].
Take `Cc1cnn2ncn(Cc3nc([C@H]4C[C@](F)(c5cccc(Cl)c5)C4)no3)c(=O)c12` [Example Compound 253, 3-[[3-[trans-3-(3-chlorophenyl)-3-fluoro-cyclobutyl]-1,2,4-oxadiazol-5-yl]methyl]-5-methyl-pyrazolo[5,1-f][1,2,4]triazin-4-one]: the IC50 turned out to be 43.5 nM under setting [1] and 31 nM under setting [2].
For `Cn1cnc2ncn(Cc3nc([C@@H]4[C@H]5C=C(c6cccc(F)c6F)C[C@H]54)no3)c(=O)c21` [Example Compound 254, 7-methyl-1-[[3-[(1R,5R,6S)-3-(2,3-difluorophenyl)-6-bicyclo[3.1.0]hex-2-enyl]-1,2,4-oxadiazol-5-yl]methyl]purin-6-one], the 50% inhibitory concentration (IC50) stood at 12.3 nM (read-out: hTRPA1 IC50 (10 min), compounds incubated 10 minutes at room temperature before cinnamaldehyde agonist, listed as 254) and 2.1 nM (read-out: hTRPA1 IC50 (90 min), compounds incubated 90 minutes at room temperature before cinnamaldehyde agonist, listed as 254).
As to `Cn1c(N)nc2ncn(Cc3nc([C@H]4[C@@H]5C=C(c6ccccc6)C[C@@H]54)no3)c(=O)c21` [Example Compound 255, 8-amino-7-methyl-1-[[3-[(1S,5S,6R)-3-phenyl-6-bicyclo[3.1.0]hex-2-enyl]-1,2,4-oxadiazol-5-yl]methyl]purin-6-one], the IC50 turned out to be 33.3 nM under setting [1] and 3.8 nM under setting [2].
Regarding `Cn1cnc2ncn(Cc3nc([C@H]4[C@@H]5C=C(c6ccc(C#N)cc6)C[C@@H]54)no3)c(=O)c21` [Example Compound 256, 4-[(1S,5S,6R)-6-[5-[(7-methyl-6-oxo-purin-1-yl)methyl]-1,2,4-oxadiazol-3-yl]-3-bicyclo[3.1.0]hex-2-enyl]benzonitrile], the IC50 under setting [1] was 21.7 nM and the IC50 under setting [2] came to 6.6 nM.
For `Cn1cnc2ncn(Cc3nc([C@H]4C[C@H](Cc5cccc(Cl)c5)C4)no3)c(=O)c21` [Example Compound 257, 1-[[3-[trans-3-[(3-chlorophenyl)methyl]cyclobutyl]-1,2,4-oxadiazol-5-yl]methyl]-7-methyl-purin-6-one], the IC50 is, setting by setting: under setting [1], 16.6 nM; under setting [2], 19 nM.
In the case of `Cn1cnc2ncn(Cc3nc([C@H]4[C@@H]5CN(c6cc(F)c(C#N)c(F)c6)C[C@@H]54)no3)c(=O)c21` [Example Compound 258, 2,6-difluoro-4-[(1S,5R)-6-[5-[(7-methyl-6-oxo-purin-1-yl)methyl]-1,2,4-oxadiazol-3-yl]-3-azabicyclo[3.1.0]hexan-3-yl]benzonitrile], the IC50 under setting [1] was found to be 78.2 nM and the IC50 under setting [2] came to 18 nM.
